Assays:
[1] = system: αP197fs (co-expressed with βγ-ENaC); assay: Whole-cell patch clamp, αP197fs + WT βγ; type: cell-based, human; conditions: read-out: EC50, solnatide, HEK-293, whole-cell, -100 mV, n = 5, p < 0.001 vs WT
Method: (§1) Point mutations of α-, β-, γ- and δ-hENaC and PHA1B frameshift mutations of α-hENaC were prepared with the QuikChange Lightning Site-Directed Mutagenesis Kit (Agilent Technologies, CA, USA). Mutagenic primers were designed individually with the Primer Design Program provided on the producer’s website or for the frameshift mutations the same base changes as reported in patients (see Table 2) were performed. Primers were ordered from Sigma-Aldrich, Vienna, Austria.
(§2) HEK-293 cells were transfected 1 day after cell seeding using X-tremeGENE HP DNA transfection reagent (Roche Diagnostics, Mannheim, Germany) according to the manufacturer’s protocol. A set of WT or mutant αβγ- or δβγ-hENaC, or α-, β-, γ-, or δ-hENaC alone was used, and the ratio of DNA to transfection reagent was 1:3. The expression was highest 48–72 h after transfection.
(§3) Electrophysiological experiments were performed as described in detail by Shabbir et al. ([16]). […] Currents were recorded with the patch clamp method in the whole-cell mode. The chamber contained 1 ml of the bath solution of the following composition (in mM): 145 NaCl, 2.7 KCl, 1.8 CaCl2, 2 MgCl2, 5.5 glucose, and 10 HEPES, adjusted to pH 7.4 with 1 M NaOH solution. Micropipettes were pulled from thin-walled borosilicate glass capillaries (Harvard Apparatus, Holliston, MA, USA) with a DMZ Zeitz Puller to obtain electrode resistances ranging from 2 to 5 MΩ. […]

[2] = system: αR438fs (co-expressed with βγ-ENaC); assay: Whole-cell patch clamp, αR438fs + WT βγ; type: cell-based, human; conditions: read-out: EC50, solnatide, HEK-293, whole-cell, -100 mV, n = 7
Method: as §1, §2, §3

[3] = biological target: T1, α-hENaC (Homo sapiens, UniProt P37088); set-up: method as in PMID 24077967; conditions: α-hENaC alone, control current 55.3 ± 5.5 pA, mean ± S.E.; cited from earlier work
T1 construct: expressed in transfected cells; host or cells: HEK-293
T1 sequence (P37088 1-669): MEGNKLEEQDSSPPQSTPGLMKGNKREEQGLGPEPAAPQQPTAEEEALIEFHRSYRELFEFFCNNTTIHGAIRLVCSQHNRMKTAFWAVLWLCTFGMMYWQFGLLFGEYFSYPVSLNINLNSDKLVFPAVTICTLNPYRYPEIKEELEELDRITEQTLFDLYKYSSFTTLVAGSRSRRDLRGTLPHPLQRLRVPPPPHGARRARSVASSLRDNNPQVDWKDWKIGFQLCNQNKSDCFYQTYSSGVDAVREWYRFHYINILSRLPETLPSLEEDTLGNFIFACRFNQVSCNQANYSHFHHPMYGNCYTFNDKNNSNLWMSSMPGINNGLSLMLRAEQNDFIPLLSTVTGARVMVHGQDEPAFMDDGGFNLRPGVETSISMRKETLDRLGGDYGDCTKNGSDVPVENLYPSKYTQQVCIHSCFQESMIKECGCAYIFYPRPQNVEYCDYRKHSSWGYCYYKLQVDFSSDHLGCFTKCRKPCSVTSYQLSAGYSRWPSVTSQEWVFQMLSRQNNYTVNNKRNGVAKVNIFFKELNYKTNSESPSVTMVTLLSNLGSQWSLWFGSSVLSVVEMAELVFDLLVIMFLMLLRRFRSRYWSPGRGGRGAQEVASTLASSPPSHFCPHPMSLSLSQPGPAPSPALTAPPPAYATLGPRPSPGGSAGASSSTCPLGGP

In the case of C[C@@H]1NC(=O)CNC(=O)[C@H](CCC(=O)O)NC(=O)[C@@H]2CCCN2C(=O)[C@H]([C@@H](C)O)NC(=O)[C@H](CCC(=O)O)NC(=O)[C@H](CCCNC(=N)N)NC(=O)[C@H](CCC(N)=O)NC(=O)CNC(=O)[C@@H](N)CSSC[C@@H](C(=O)O)NC(=O)[C@H](Cc2ccc(O)cc2)NC(=O)[C@H](Cc2c[nH]c3ccccc23)NC(=O)[C@@H]2CCCN2C(=O)[C@H](CCCCN)NC(=O)[C@H](C)NC(=O)[C@H](CCC(=O)O)NC1=O [solnatide, L-cysteine, L-cysteinylglycyl-L-glutaminyl-L-arginyl-L-α-glutamyl-L-threonyl-L-prolyl-L-α-glutamylglycyl-L-alanyl-L-α-glutamyl-L-alanyl-L-lysyl-L-prolyl-L-tryptophyl-L-tyrosyl-, cyclic (1→17)-disulfide], the EC50 [1] is given as 84 ± 4.9 nM, the EC50 [2] is given as 56.6 ± 8 nM and the “Maximal induced current, solnatide” value [3] is given as 11.3 ± 6.2 pA.
